The nature of series [1]: Optical images of aqueous peptide solutions at four concentrations. In kind it is physicochemical. Particulars: pH = 7.5. On the procedure:
[7. What are the pH values of the hydrogels formed? […]
the captions of proper figures.]
We thank the reviewer for the comment. […]
the information of pH values of tetrapeptide hydrogels/solutions in the captions of Fig. 3a and d. […]
Insets: […]
optical images of corresponding solution/suspension (pH=7.5). […]
[8. Is it surprising that both QQQQ and EEEE form suspension at 120 mM? Any explanation from either ML perspective or thermodynamic prospective?]
We thank the reviewer for the comment. From the ML or simulation perspective, both QQQQ and […]
hydrophilicity and lack of sufficient directional hydrogen bonds captured in simulation and prediction. However, the formation of suspension in real experiments indicate the formation of aggregates, and we attribute this to the thermodynamic factor of concentration.
Actually, we also found this phenomenon on RRRR (also contains four charged amino acids), and […]
We compared the optical images of QQQQ and EEEE at four concentrations (30, 60, 90, and 120 […]
transparency decreased (60, 90, and 120 mM) due to the formation of aggregates. As for EEEE, at […]
suspension. We tend to think that as the concentration of charged tetrapeptides increases, the hydrogen bond between peptide molecules and water is strengthened, resulting in the formation of […]
aggregates at high concentrations. […]
description in Lines 214-216 of this main text.
Fig. R1 The optical images of QQQQ and EEEE aqueous solutions at four concentrations (30, 60, […]
with different sizes in an aqueous solution, qualitatively consistent with the morphologies obtained in MD simulations except for RRRR (Fig. 3d, right column), showing different levels of aggregation. Taking the TEM result of RRRR together, we attributed this to the thermodynamic factor of concentration. Finally, we presented a summary of the assembled morphologies of all […]
tetrapeptides tended to form fibers, sheets, or hybrid morphology (70%) in an aqueous solution. […]
[…]
(1 picture or pasted object on this page, not shown here)

A short description of series [2]: Transmission electron microscope (negative staining) of peptide assemblies. As to conditions: for Morphology: TEM, negative staining with uranyl acetate, 120 kV.
Procedure: We used the negative staining technique to observe the morphologies formed by peptides. A micropipette was used to load 10 μL of sample solution to a carbon-coated copper grid, and we used a piece of filter paper to remove the excess solution. After rinsing the grid with the deionized water, we used uranyl acetate to stain the sample for 1 minute and then rinsed the grid with deionized water again.
Series [3] is described as follows: Peptide hydrogel formation, vial-inverting method. Set-up: key to EXP / GELATION: 0: no hydrogel; 1: hydrogel. The format is physicochemical. Particulars: for State: pH 6.5-8.5 (1 N NaOH), ultrasonication, standing 48 h; for Concentration: concentration at which the state was recorded: lowest of 30, 60, 90, 120 mM that gave a gel, 120 mM for non-gelating peptides; for GELATION: 1 = hydrogel, 0 = no hydrogel. The method in brief:
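Tetrapeptides dissolved in ultrapure water at 30 mM, pH brought to 6.5–8.5 with 1 N NaOH stepwise with brief ultrasonication, then left 48 h. Gel defined as self-supporting and non-flowing on vial inversion; non-gelling peptides retested at 60, 90 and 120 mM.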

The next series relates to C57BL/6 mice. In kind it is in vivo, C57BL/6 J mice. Particulars: serum day 21.
Where [4] appears, read: 120 mM peptide (highest tested) in ultrapure water, vial-inverting method, precipitate, sol, suspension = no gel.
[5] abbreviates: peptide concentration 120 mM, vial-inverting method.

Where a SMILES comes first, the peptide text is derived from it.

`N[C@@H](CCC(=O)O)C(=O)N[C@@H](CCC(=O)O)C(=O)N[C@@H](CCC(=O)O)C(=O)N[C@@H](CCC(=O)O)C(=O)O` [EEEE] (H-EEEE-OH): the “appearance of aqueous solution (optical image)” value in series [1] (30 mM) was “uniform and clear solutions”; in series [1] (60 mM) it was “uniform and clear solutions”; in series [1] (90 mM), “uniform and clear solutions”; in series [1] (120 mM), “opaque suspension”. In addition, the Morphology entry in series [2] (line of the table gives 120 mM) is on record as “sheet”. Also, the State result in series [3] (setting [4]) is “suspension”. The “Concentration” value in series [3] stood at 120000 µM. The GELATION in series [3] (setting [5]) stood at 0.
As to `NC(=O)CC[C@H](NC(=O)[C@H](CCC(N)=O)NC(=O)[C@H](CCC(N)=O)NC(=O)[C@@H](N)CCC(N)=O)C(=O)O` [QQQQ] (H-QQQQ-OH), the “appearance of aqueous solution (optical image)” value in series [1] (30 mM) was “clear solution”; in series [1] (60 mM), “solution transparency decreased”; in series [1] (90 mM), “solution transparency decreased”; in series [1] (120 mM), “solution transparency decreased”. Besides, the Morphology result in series [2] (line of the table gives 120 mM) is “sheet”. Besides, the State entry in series [3] (setting [4]) was “suspension”. In series [3], the “Concentration” value was 120000 µM. In series [3] (setting [5]), the GELATION stood at 0.
As for `C[C@H](NC(=O)[C@@H](N)Cc1ccc(O)cc1)C(=O)N[C@@H](Cc1c[nH]c2ccccc12)C(=O)N[C@@H](Cc1ccccc1)C(=O)O` [YAWF] (H-YAWF-OH), the Morphology entry in series [2] (line of the table gives 60 mM) is “fibre”. Also, the “morphology by TEM (in words)” value in series [2] (aqueous solution or hydrogel, negative staining) was “nanofibrous network”. Besides, in the series with C57BL/6 mice (C57BL/6 mice), the “increase of RBD-specific IgG2b response compared with the commercial aluminum adjuvant group” value is reported as “around 9.7 fold”. For the same molecule, in the series with C57BL/6 mice (C57BL/6 mice, similar to the aluminum group), the “production of RBD-specific IgG1 (in words)” value is recorded as “significantly enhanced”. For the same molecule, in the series with C57BL/6 mice (C57BL/6 mice, surpassing aluminum group or control group), the “RBD-specific IgG2c titers (in words)” value was “high IgG2c titers”. In addition, the “enhancement of the generation of IgG compared with the RBD group” value in the series with C57BL/6 mice ([…], C57BL/6 mice) was 41.6 fold. The “endpoint titre of RBD-specific IgG in serum” value in the series with C57BL/6 mice (mean of n = 6 mice, s.c. immunization day 0, 7, 14 with 15 μg RBD alone, with 12.5 μL aluminum adjuvant or 60 mM YAWF hydrogel, […]) stood at 58615.2. The State entry in series [3] (60 mM peptide in ultrapure water, vial-inverting method, no gel at 30 mM) is “gel”. Moreover, the “Concentration” value in series [3] came to 60000 µM. In addition, in series [3] (peptide concentration 60 mM, vial-inverting method), the GELATION was 1. For the same molecule, the “hydrogel formation (in words)” value in series [3] (vial-inverting method, representative hydrogels pH between 7.0 to 7.5) is given as “can form hydrogels”.
`C[C@H](NC(=O)[C@@H](N)Cc1ccc(O)cc1)C(=O)N[C@@H](Cc1ccc(O)cc1)C(=O)N[C@@H](Cc1ccc(O)cc1)C(=O)O` [YAYY] (H-YAYY-OH): in series [2] (line of the table gives 120 mM), the Morphology result is listed as “aggregates”. Besides, the State entry in series [3] (setting [4]) is “sol”. In addition, in series [3], the “Concentration” value was 120000 µM. The same molecule registered a GELATION in series [3] (setting [5]) of 0.
With `CC[C@H](C)[C@H](NC(=O)[C@H](Cc1ccc(O)cc1)NC(=O)[C@@H]1CCCN1C(=O)[C@@H](N)Cc1ccc(O)cc1)C(=O)O` [YPYI] (H-YPYI-OH), the Morphology result in series [2] (line of the table gives 120 mM) is reported as “aggregates”. For the same molecule, the State result in series [3] (setting [4]) is on record as “sol”. Also, the “Concentration” value in series [3] was found to be 120000 µM. The molecule further returned a GELATION in series [3] (setting [5]) of 0.
With `CC(C)[C@H](NC(=O)[C@@H](N)Cc1ccc(O)cc1)C(=O)N[C@@H](Cc1ccccc1)C(=O)N[C@@H](C)C(=O)O` [YVFA] (H-YVFA-OH), the Morphology result in series [2] (line of the table gives 120 mM) is recorded as “sphere”. The State result in series [3] (setting [4]) was “gel”. Besides, in series [3], the “Concentration” value turned out to be 120000 µM. In addition, the GELATION in series [3] (setting [5]) was determined as 1.
On to `N[C@@H](Cc1ccc(O)cc1)C(=O)N[C@@H](Cc1ccc(O)cc1)C(=O)N[C@@H](Cc1ccc(O)cc1)C(=O)N[C@@H](Cc1ccc(O)cc1)C(=O)O` [YYYY] (H-YYYY-OH), for which, in series [2] (line of the table gives 120 mM), the Morphology result is “aggregates”. The State entry in series [3] (setting [4]) is recorded as “sol”. Besides, in series [3], the “Concentration” value was 120000 µM. This molecule registered a GELATION in series [3] (setting [5]) of 0.
The matching figures for CCCC [tetrapeptide]: “sphere”, “suspension”, 120000 µM and 0.
